One test deals with T1, Mer (Homo sapiens, UniProt Q12866).
T1 construct: host or cells: 293A cells (Thermo Fisher #R70507)
T1 sequence (Q12866 21-999): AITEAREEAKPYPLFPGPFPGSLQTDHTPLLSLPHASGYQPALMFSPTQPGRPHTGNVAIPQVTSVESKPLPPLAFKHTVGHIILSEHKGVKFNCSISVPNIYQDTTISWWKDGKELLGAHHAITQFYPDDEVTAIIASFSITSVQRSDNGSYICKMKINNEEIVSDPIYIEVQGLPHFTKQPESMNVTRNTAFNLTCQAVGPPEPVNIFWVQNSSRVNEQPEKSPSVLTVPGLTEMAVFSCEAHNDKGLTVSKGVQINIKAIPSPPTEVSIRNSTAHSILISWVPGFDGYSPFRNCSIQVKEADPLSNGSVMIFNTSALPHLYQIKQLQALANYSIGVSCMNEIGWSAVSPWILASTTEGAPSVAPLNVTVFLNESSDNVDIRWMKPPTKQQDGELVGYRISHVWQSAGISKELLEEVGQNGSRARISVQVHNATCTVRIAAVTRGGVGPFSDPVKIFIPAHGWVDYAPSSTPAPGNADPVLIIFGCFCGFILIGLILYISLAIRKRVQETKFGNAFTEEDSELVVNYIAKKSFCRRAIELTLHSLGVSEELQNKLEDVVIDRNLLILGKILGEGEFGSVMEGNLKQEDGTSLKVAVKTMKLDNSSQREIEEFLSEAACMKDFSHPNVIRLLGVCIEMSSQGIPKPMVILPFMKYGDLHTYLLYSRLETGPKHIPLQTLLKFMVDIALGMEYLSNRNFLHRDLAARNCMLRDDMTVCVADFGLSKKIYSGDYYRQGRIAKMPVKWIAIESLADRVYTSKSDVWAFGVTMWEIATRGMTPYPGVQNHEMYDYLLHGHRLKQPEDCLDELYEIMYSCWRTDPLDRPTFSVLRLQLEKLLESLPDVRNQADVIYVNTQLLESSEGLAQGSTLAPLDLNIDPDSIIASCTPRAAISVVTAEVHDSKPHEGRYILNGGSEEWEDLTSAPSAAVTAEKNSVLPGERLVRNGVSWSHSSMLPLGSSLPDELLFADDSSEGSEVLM
The test can be described thus: Mer autophosphorylation ELISA in transient transfected 293A cells. Particulars: Table 3 Cellular Activities; MERTK-transfected 293A cells, phospho-Mer ELISA. It is filed as cell-based. The procedure, abridged: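 293A cells transiently transfected with human MERTK DNA, replated after 24 h, then treated 1 h with 8-point compound dilutions in serum-free medium (0.3% DMSO). Lysates assayed by phospho-Mer sandwich ELISA against phospho-Mer standard; DMSO = 100%, reference inhibitor = 0% activity; IC50 by 4-parameter logistic fit.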
(ELISA stands for enzyme-linked immunosorbent assay.)

In the next test the target is KDR (Homo sapiens, UniProt P35968). Briefly: KDR autophosphorylation ELISA in HUVEC cells. The test is classed as cell-based. Also on record: endogenous in cells; host or cells: HUVEC (Lonza #C2519A). Particulars: Table 3 Cellular Activities, VEGF165-stimulated, phospho-KDR ELISA. Put shortly:
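Inhibition of VEGF165-induced KDR phosphorylation was determined in serum-starved HUVEC after 1 h compound pretreatment and 5 min stimulation with 100 ng/mL VEGF165. Lysate phospho-KDR was measured by ELISA; IC50 values came from a 4-parameter logistic fit of 8-point curves.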

Our source for the IC50 values is patent US20230151003A1, “COMPOUNDS AND METHODS OF USE” (Exelixis, Inc., priority 2020, published 2023).

SMILES strings stand for the structures.

Chain of KDR (P35968 20-1356): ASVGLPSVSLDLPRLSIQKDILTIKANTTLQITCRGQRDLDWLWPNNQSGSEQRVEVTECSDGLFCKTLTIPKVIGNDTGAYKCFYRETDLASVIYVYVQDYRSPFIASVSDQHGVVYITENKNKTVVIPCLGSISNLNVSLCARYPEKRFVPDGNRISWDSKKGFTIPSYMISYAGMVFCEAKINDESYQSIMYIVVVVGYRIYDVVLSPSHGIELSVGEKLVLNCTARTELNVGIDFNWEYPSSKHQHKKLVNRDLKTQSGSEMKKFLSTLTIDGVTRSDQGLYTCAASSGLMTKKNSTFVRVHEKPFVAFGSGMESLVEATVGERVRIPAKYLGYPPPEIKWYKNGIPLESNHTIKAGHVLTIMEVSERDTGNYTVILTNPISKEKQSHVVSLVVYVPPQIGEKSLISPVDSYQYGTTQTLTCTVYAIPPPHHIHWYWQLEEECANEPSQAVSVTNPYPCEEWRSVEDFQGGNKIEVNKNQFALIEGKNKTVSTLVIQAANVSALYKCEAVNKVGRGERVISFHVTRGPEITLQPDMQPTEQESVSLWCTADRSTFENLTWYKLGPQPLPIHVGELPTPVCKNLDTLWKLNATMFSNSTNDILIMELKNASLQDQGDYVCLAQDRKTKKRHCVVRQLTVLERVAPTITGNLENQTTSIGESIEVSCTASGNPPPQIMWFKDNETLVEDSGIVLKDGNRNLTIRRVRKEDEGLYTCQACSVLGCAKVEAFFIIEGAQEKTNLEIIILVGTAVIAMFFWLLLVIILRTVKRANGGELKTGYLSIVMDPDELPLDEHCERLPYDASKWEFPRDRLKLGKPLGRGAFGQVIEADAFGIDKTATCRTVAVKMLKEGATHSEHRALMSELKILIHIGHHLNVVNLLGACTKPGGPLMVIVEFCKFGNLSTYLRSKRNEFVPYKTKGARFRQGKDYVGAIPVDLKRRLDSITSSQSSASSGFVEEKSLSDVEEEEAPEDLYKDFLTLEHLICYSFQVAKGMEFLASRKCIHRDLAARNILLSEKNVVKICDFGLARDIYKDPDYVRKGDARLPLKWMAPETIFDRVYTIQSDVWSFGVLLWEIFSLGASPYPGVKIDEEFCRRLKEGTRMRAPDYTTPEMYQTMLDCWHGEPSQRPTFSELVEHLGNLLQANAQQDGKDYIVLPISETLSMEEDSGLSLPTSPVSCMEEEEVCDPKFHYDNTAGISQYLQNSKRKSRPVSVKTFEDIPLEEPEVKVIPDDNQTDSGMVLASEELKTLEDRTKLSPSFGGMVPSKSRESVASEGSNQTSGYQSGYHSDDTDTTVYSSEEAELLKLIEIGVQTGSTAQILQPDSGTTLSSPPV

As for `COc1cc2nccc(Oc3ccc(NC(=O)c4cc(Br)c(C)n(-c5ccc(F)cn5)c4=O)cc3F)c2nc1OC` [Compound 55, 5-Bromo-N-[4-[(6,7-dimethoxy-1,5-naphthyridin-4-yl)oxy]-3-fluorophenyl]-1-(5-fluoropyridin-2-yl)-6-methyl-2-oxopyridine-3-carboxamide], the IC50 at Mer is no more than 100 nM; against KDR it was 300 to 1000 nM.

As to `COc1cc2nccc(Oc3ccc(NC(=O)c4cnc(C)c(-c5ccco5)c4O)cc3F)c2nc1OC` [Compound 89, N-[4-[(6,7-Dimethoxy-1,5-naphthyridin-4-yl)oxy]-3-fluorophenyl]-5-(furan-2-yl)-4-hydroxy-6-methylpyridine-3-carboxamide], the IC50 against Mer and against KDR was no more than 100 nM throughout.

For `COc1cc2nccc(Oc3ccc(NC(=O)c4cnc(C)c(-c5cccs5)c4O)cc3F)c2nc1OC` [Compound 90, N-[4-[(6,7-Dimethoxy-1,5-naphthyridin-4-yl)oxy]-3-fluoro-phenyl]-4-hydroxy-6-methyl-5-(2-thienyl)pyridine-3-carboxamide], the IC50 at Mer and at KDR was no more than 100 nM throughout.

Consider `COc1cc2nccc(Oc3ccc(NC(=O)c4cnc(C)c(-c5cc(C)cs5)c4O)cc3F)c2nc1OC` [Compound 91, N-[4-[(6,7-Dimethoxy-1,5-naphthyridin-4-yl)oxy]-3-fluoro-phenyl]-4-hydroxy-6-methyl-5-(4-methyl-2-thienyl) pyridine-3-carboxamide], for which the IC50 on Mer and against KDR was no more than 100 nM throughout.

As to `COc1cc2nccc(Oc3ccc(NC(=O)c4cnc(C)c(-c5ccc(C)o5)c4O)cc3F)c2nc1OC` [Compound 92, N-[4-[(6,7-Dimethoxy-1,5-naphthyridin-4-yl)oxy]-3-fluoro-phenyl]-4-hydroxy-6-methyl-5-(5-methyl-2-furyl)pyridine-3-carboxamide], the IC50 against Mer and on KDR was no more than 100 nM each time.

On to `COc1cc2nccc(Oc3ccc(NC(=O)c4cnc(C)c(-c5ccsc5)c4O)cc3F)c2nc1OC` [Compound 93, N-[4-[(6,7-Dimethoxy-1,5-naphthyridin-4-yl)oxy]-3-fluoro-phenyl]-4-hydroxy-6-methyl-5-(3-thienyl)pyridine-3-carboxamide], for which the IC50 against Mer and at KDR was no more than 100 nM in each case.

Turning to `COc1cc2nccc(Oc3ccc(NC(=O)c4cnc(C)c(-c5ccc(C)s5)c4O)cc3F)c2nc1OC` [Compound 94, N-[4-[(6,7-Dimethoxy-1,5-naphthyridin-4-yl)oxy]-3-fluoro-phenyl]-4-hydroxy-6-methyl-5-(5-methyl-2-thienyl) pyridine-3-carboxamide], the IC50 at Mer and against KDR was no more than 100 nM in each case.

Turning to `COc1cc2nccc(Oc3ccc(NC(=O)c4cnc(C)c(-c5ccoc5)c4O)cc3F)c2nc1OC` [Compound 95, N-[4-[(6,7-Dimethoxy-1,5-naphthyridin-4-yl)oxy]-3-fluoro-phenyl]-5-(3-furyl)-4-hydroxy-6-methyl-pyridine-3-carboxamide], the IC50 against Mer and against KDR was no more than 100 nM throughout.

For the molecule `COc1cnc2c(Oc3ccc(NC(=O)c4cnc(C)c(-c5ccco5)c4O)cc3F)ccnc2c1` [Compound 96, N-[3-Fluoro-4-[(7-methoxy-1,5-naphthyridin-4-yl)oxy]phenyl]-5-(2-furyl)-4-hydroxy-6-methyl-pyridine-3-carboxamide], the IC50 on Mer and against KDR was no more than 100 nM in each case.

Regarding `COc1cnc2c(Oc3ccc(NC(=O)c4cnc(C)c(-c5ccc(C)o5)c4O)cc3F)ccnc2c1` [Compound 97, N-[3-Fluoro-4-[(7-methoxy-1,5-naphthyridin-4-yl)oxy]phenyl]-4-hydroxy-6-methyl-5-(5-methyl-2-furyl)pyridine-3-carboxamide], the IC50 at Mer and against KDR was no more than 100 nM in each case.

Take `COc1cnc2c(Oc3ccc(NC(=O)c4cnc(C)c(-c5ccsc5)c4O)cc3F)ccnc2c1` [Compound 98, N-[3-Fluoro-4-[(7-methoxy-1,5-naphthyridin-4-yl)oxy]phenyl]-4-hydroxy-6-methyl-5-(3-thienyl)pyridine-3-carboxamide]: the IC50 against Mer and on KDR was no more than 100 nM in each case.

Consider `COc1cnc2c(Oc3ccc(NC(=O)c4cnc(C)c(-c5ccoc5)c4O)cc3F)ccnc2c1` [Compound 99, N-[3-Fluoro-4-[(7-methoxy-1,5-naphthyridin-4-yl)oxy]phenyl]-5-(3-furyl)-4-hydroxy-6-methyl-pyridine-3-carboxamide], for which the IC50 on Mer and on KDR was no more than 100 nM each time.

Take `COc1cnc2c(Oc3ccc(NC(=O)c4cnc(C)c(-c5cccs5)c4O)cc3F)ccnc2c1` [Compound 100, N-[3-Fluoro-4-[(7-methoxy-1,5-naphthyridin-4-yl)oxy]phenyl]-4-hydroxy-6-methyl-5-(2-thienyl)pyridine-3-carboxamide]: the IC50 against Mer and on KDR was no more than 100 nM throughout.

As to `COc1cnc2c(Oc3ccc(NC(=O)c4cnc(C)c(-c5ccc(C)s5)c4O)cc3F)ccnc2c1` [Compound 101, N-[3-Fluoro-4-[(7-methoxy-1,5-naphthyridin-4-yl)oxy]phenyl]-4-hydroxy-6-methyl-5-(5-methyl-2-thienyl) pyridine-3-carboxamide], the IC50 against Mer and against KDR was no more than 100 nM throughout.

For the molecule `COc1cnc2c(Oc3ccc(NC(=O)c4cnc(C)c(-c5cc(C)cs5)c4O)cc3F)ccnc2c1` [Compound 102, N-[3-Fluoro-4-[(7-methoxy-1,5-naphthyridin-4-yl)oxy]phenyl]-4-hydroxy-6-methyl-5-(4-methyl-2-thienyl) pyridine-3-carboxamide], the IC50 against Mer and at KDR was no more than 100 nM throughout.

As to `COc1cc2nccc(Oc3ccc(NC(=O)c4cnc(C)c(-c5sccc5C)c4O)cc3F)c2nc1OC` [Compound 103, N-[4-[(6,7-Dimethoxy-1,5-naphthyridin-4-yl)oxy]-3-fluoro-phenyl]-4-hydroxy-6-methyl-5-(3-methyl-2-thienyl) pyridine-3-carboxamide], the IC50 against Mer and on KDR was no more than 100 nM throughout.

In the case of `COc1cc2nccc(Oc3ccc(NC(=O)c4cnc(C)c(-c5ccnn5C)c4O)cc3F)c2nc1OC` [Compound 104], the IC50 against Mer and on KDR was no more than 100 nM throughout.

Turning to `COc1cc2nccc(Oc3ccc(NC(=O)c4cnc(C)c(-c5cc(C(F)(F)F)nn5C)c4O)cc3F)c2nc1OC` [Compound 105], the IC50 against Mer and against KDR was no more than 100 nM each time.

For the molecule `COc1cc2nccc(Oc3ccc(NC(=O)c4c(C)nc(C)c(-c5ccsc5)c4O)cc3F)c2nc1OC` [Compound 106], the IC50 on Mer and against KDR was no more than 100 nM in each case.

With `COc1cc2nccc(Oc3ccc(NC(=O)c4c(C)nc(C)c(-c5cccs5)c4O)cc3F)c2nc1OC` [Compound 107], the IC50 against Mer and against KDR was no more than 100 nM each time.

Consider `COc1cc2nccc(Oc3ccc(NC(=O)c4c(C)nc(C)c(-c5ccnn5C)c4O)cc3F)c2nc1OC` [Compound 108, N-[4-[(6,7-Dimethoxy-1,5-naphthyridin-4-yl)oxy]-3-fluoro-phenyl]-4-hydroxy-2,6-dimethyl-5-(2-methylpyrazol-3-yl) pyridine-3-carboxamide], for which the IC50 at Mer and against KDR was no more than 100 nM in each case.

Usually IC50 stands for the midpoint of a concentration-inhibition curve.
